Assay [1] has as its target purified Z-AAT protein from human plasma (Homo sapiens (Human), UniProt P01009, E366K). Briefly: Biochemical Assay (Z-AAT Elastase Activity Assay). The following applies: purified Z-AAT pre-incubated with compound 1 hour, then human neutrophil elastase and fluorescent substrate. The essentials: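 Purified plasma Z-AAT (20 nM) preincubated with compounds 1 h at room temperature, then 3 nM human neutrophil elastase added in PBS + 0.01% BRIJ35 for 30 min to form suicide complex. Residual elastase activity read immediately by fluorescence after adding 300 μM MeOSuc-AAPV-AMC substrate solution.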

The target in assay [2] is NL20 human bronchial epithelial cells expressing human Z-AAT (Homo sapiens (Human), UniProt P01009, E366K). Briefly: AAT Function Assay (MSD Assay NL20-SI Cell Line). The class given is cell-based. The settings on record: functionally active AAT (AAT-hNE complex, MSD) in supernatant of NL20 cells expressing human Z-AAT; read-out: NL20 Functional EC50. The essentials:
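NL20 bronchial epithelial cells expressing Z-AAT, induced with 0.1 μM doxycycline, were treated with compound overnight. Functional AAT in supernatant was measured by complex formation with excess human neutrophil elastase, captured on anti-AAT plates, detected with Sulfo-tagged anti-elastase on MSD, and quantified against M-AAT standards (0.156–320 ng/mL).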

Sequence of NL20 human bronchial epithelial cells expressing human Z-AAT (P01009 25-418 E366K limits assumed): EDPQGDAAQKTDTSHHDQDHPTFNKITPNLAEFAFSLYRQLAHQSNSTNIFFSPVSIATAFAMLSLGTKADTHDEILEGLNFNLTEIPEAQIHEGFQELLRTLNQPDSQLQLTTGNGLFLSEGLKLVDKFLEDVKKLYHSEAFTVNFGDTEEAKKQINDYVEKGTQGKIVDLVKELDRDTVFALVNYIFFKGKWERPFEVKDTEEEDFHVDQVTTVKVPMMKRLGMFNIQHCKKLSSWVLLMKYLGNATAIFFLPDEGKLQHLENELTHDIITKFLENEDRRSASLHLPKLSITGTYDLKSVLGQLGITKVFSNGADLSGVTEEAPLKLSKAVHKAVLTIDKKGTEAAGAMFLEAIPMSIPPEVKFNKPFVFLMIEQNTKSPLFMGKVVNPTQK
Sequence of purified Z-AAT protein from human plasma (P01009 25-418 E366K limits assumed): as above

On to `Cc1cc(-n2c(C3CC3)c(CC(=O)O)c3cc(O)ccc32)ccc1F` [Compound 160], for which the IC50 (in general, the concentration needed to halve the response being measured) in assay [1] was more than 30000 nM. The EC50 (in general, the concentration giving half of the maximal effect) in assay [2] was more than 2000 nM.

Consider `Cc1cc(-n2c(C)c(CC(=O)O)c3cc(O)ccc32)ccn1` [Compound 161], for which, in assay [1], the half-maximal inhibitory concentration (IC50) is more than 30000 nM. Besides, the EC50 in assay [2] was more than 2000 nM.

Turning to `Cc1cc(-n2c(C)c(CC(=O)O)c3cc(O)ccc32)ccc1F` [Compound 162], the IC50 in assay [1] was more than 30000 nM. In addition, the half-maximal effective concentration (EC50) in assay [2] is more than 2000 nM.

In the case of `Cc1cc(-n2c(C(C)C)c(CCC(=O)O)c3cc(O)c(F)cc32)ccc1F` [Compound 163, 3-(6-fluoro-1-(4-fluoro-3-methylphenyl)-5-hydroxy-2-isopropyl-1H-indol-3-yl)propanoic acid], the IC50 in assay [1] is more than 30000 nM. Moreover, the EC50 in assay [2] is less than 500 nM.

On to `COCC(C)(C)c1c(-c2ccc(C(=O)O)cc2)c2cc(O)ccc2n1-c1ccc(F)cc1` [Compound 164, 4-(1-(4-fluorophenyl)-5-hydroxy-2-(1-methoxy-2-methylpropan-2-yl)-1H-indol-3-yl)benzoic acid], for which, in assay [1], the IC50 was less than 2000 nM. For the same compound, the EC50 in assay [2] was less than 500 nM.

In the case of `CC(C)(CC#N)c1c(-c2ccc(C(=O)O)cc2)c2cc(O)ccc2n1-c1ccc(F)cc1` [Compound 165, 4-(2-(1-cyano-2-methylpropan-2-yl)-1-(4-fluorophenyl)-5-hydroxy-1H-indol-3-yl)benzoic acid], the IC50 in assay [1] was less than 2000 nM. In assay [2], the EC50 lay in the range of 500 to 2000 nM.

With `Cc1cc(-n2c(C3CCOCC3)c(-c3ccc(C(=O)O)cc3)c3cc(O)ccc32)ccc1F` [Compound 166, 4-(1-(4-fluoro-3-methylphenyl)-5-hydroxy-2-(tetrahydro-2H-pyran-4-yl)-1H-indol-3-yl)benzoic acid], in assay [1], the IC50 was more than 30000 nM. For the same compound, the EC50 in assay [2] was more than 2000 nM.

On to `Cc1cc(-n2c(C(C)C)c(-c3cccc(C(=O)O)c3)c3cc(O)ccc32)ccc1F` [Compound 168], for which, in assay [1], the IC50 was in the range of 2000 to 5000 nM. Moreover, the EC50 in assay [2] was less than 500 nM.

Turning to `Cc1cc(-n2c(C(C)C)c(-c3ccccc3C(=O)O)c3cc(O)ccc32)ccc1F` [Compound 169], the IC50 in assay [1] is more than 30000 nM. Also, the EC50 in assay [2] is more than 2000 nM.

On to `Cc1cc(-n2c(C(C)C)c(-c3cncc(C(=O)O)c3)c3cc(O)ccc32)ccc1F` [Compound 172], for which the IC50 in assay [1] was in the range of 2000 to 5000 nM. Moreover, the EC50 in assay [2] fell in the range of 500 to 2000 nM.

Regarding `Cc1nccc(-n2c(C(C)C)c(-c3ccc(C(=O)O)cc3)c3cc(O)ccc32)n1` [Compound 174], the IC50 in assay [1] is more than 30000 nM. Further, the EC50 in assay [2] is more than 2000 nM.

On to `Cc1cc(-n2c(C#N)c(-c3ccc(C(=O)O)cc3)c3cc(O)ccc32)ccc1F` [Compound 175], for which the IC50 in assay [1] is more than 30000 nM. Besides, the EC50 in assay [2] lay in the range of 500 to 2000 nM.

With `Cc1cc(-n2c(C(C)C)c(C(C)CC(=O)O)c3cc(O)ccc32)ccc1F` (centres unmarked) [Compound 176], the 50% inhibitory concentration (IC50) in assay [1] is more than 30000 nM. In addition, the EC50 in assay [2] fell in the range of 500 to 2000 nM.

With `COCC(C)(C)c1c(-c2ccc(C(=O)O)cc2)c2cc(O)c(Cl)cc2n1-c1ccc(F)cc1` [Compound 177, 4-(6-chloro-1-(4-fluorophenyl)-5-hydroxy-2-(1-methoxy-2-methylpropan-2-yl)-1H-indol-3-yl)benzoic acid], in assay [1], the IC50 was less than 2000 nM. In assay [2], the EC50 was less than 500 nM.

As to `COCC(C)(C)c1c(-c2ccc(C(=O)O)cc2)c2c(Cl)c(O)ccc2n1-c1ccc(F)cc1` [Compound 178, 4-[4-chloro-1-(4-fluorophenyl)-5-hydroxy-2-(2-methoxy-1,1-dimethyl-ethyl)indol-3-yl]benzoic acid], the IC50 in assay [1] was less than 2000 nM. Further, the EC50 in assay [2] is less than 500 nM.

In the case of `Cc1cc(-n2c(C(C)C)c(-c3cc(C(=O)O)[nH]n3)c3cc(O)ccc32)ccc1F` [Compound 179, 3-[1-(4-fluoro-3-methyl-phenyl)-5-hydroxy-2-isopropyl-indol-3-yl]-1H-pyrazole-5-carboxylic acid], in assay [1], the IC50 is more than 30000 nM. Further, the EC50 in assay [2] was more than 2000 nM.

`CC(C)c1c(-c2cccc(C(=O)O)c2)c2cc(O)ccc2n1C1CC(F)(F)C1` [Compound 180, 3-(1-(3,3-difluorocyclobutyl)-5-hydroxy-2-isopropyl-1H-indol-3-yl)benzoic acid]: in assay [1], the IC50 was more than 30000 nM. Besides, in assay [2], the EC50 is more than 2000 nM.

`Cc1cc(-n2c(C(C)C)c(/C=C/C(=O)O)c3cc(O)c(F)cc32)ccc1F` [Compound 181, (E)-3-(6-fluoro-1-(4-fluoro-3-methylphenyl)-5-hydroxy-2-isopropyl-1H-indol-3-yl)acrylic acid]: the IC50 in assay [1] is more than 5000 nM. Besides, the half-maximal effective concentration (EC50) in assay [2] is more than 2000 nM.

Regarding `Cc1c(C2(C#N)CC2)c2cc(O)ccc2n1-c1ccc(F)cc1` [Compound 184, 1-(1-(4-fluorophenyl)-5-hydroxy-2-methyl-1H-indol-3-yl)cyclopropane-1-carbonitrile], the IC50 in assay [1] was more than 5000 nM. In addition, in assay [2], the 50% effective concentration (EC50) was more than 2000 nM.

Turning to `CC(C)c1c(C#N)c2cc(O)ccc2n1-c1ccc(F)cc1` [Compound 185, 1-(4-fluorophenyl)-5-hydroxy-2-isopropyl-1H-indole-3-carbonitrile], the IC50 in assay [1] is more than 30000 nM. The 50% effective concentration (EC50) in assay [2] is less than 500 nM.

With `CC(C)(C)c1c(C#N)c2cc(O)ccc2n1-c1ccc(F)cc1` [Compound 186], in assay [1], the IC50 was more than 5000 nM. Further, the EC50 in assay [2] was less than 500 nM.

Regarding `Cc1cc(-n2c(C(C)C)c(C#N)c3cc(O)ccc32)ccc1F` [Compound 187], the concentration for half-maximal inhibition (IC50) in assay [1] is more than 30000 nM. For the same compound, the EC50 in assay [2] was 500 to 2000 nM.

On to `N#Cc1c(C2CCC2)n(-c2ccc(F)cc2)c2ccc(O)cc12` [Compound 188], for which, in assay [1], the IC50 was more than 30000 nM. The EC50 in assay [2] is 500 to 2000 nM.

As for `C/C=C/c1c(C#N)c2cc(O)ccc2n1-c1ccc(F)cc1` [Compound 191, 1-(4-fluorophenyl)-5-hydroxy-2-[(E)-prop-1-enyl]indole-3-carbonitrile], the IC50 in assay [1] is more than 30000 nM. In assay [2], the 50% effective concentration (EC50) is more than 2000 nM.

As to `CCC(O)c1c(C#N)c2cc(O)ccc2n1-c1ccnc(C)c1` (centres unmarked) [Compound 192, 5-hydroxy-2-(I-hydroxypropyl)-1-(2-methylpyridin-4-yl)-1H-indole-3-carbonitrile], the IC50 in assay [1] is more than 30000 nM. The concentration giving a half-maximal response (EC50) in assay [2] is more than 2000 nM.

On to `Cc1cc(-n2c(C(C)C)c(C#N)c3cc(O)c(F)cc32)ccc1F` [Compound 193, 6-fluoro-1-(4-fluoro-3-methylphenyl)-5-hydroxy-2-isopropyl-1H-indole-3-carbonitrile], for which the IC50 in assay [1] is more than 30000 nM. In assay [2], the EC50 fell in the range of 500 to 2000 nM.

Turning to `N#Cc1c(C2CCOCC2)n(-c2ccc(F)cc2)c2ccc(O)cc12` [Compound 194, 1-(4-fluorophenyl)-5-hydroxy-2-(tetrahydro-2H-pyran-4-yl)-1H-indole-3-carbonitrile], in assay [1], the IC50 was more than 30000 nM. In addition, the EC50 in assay [2] was in the range of 500 to 2000 nM.

Take `CC(C)(C)OC(=O)N1CC(c2c(C#N)c3cc(O)ccc3n2-c2ccc(F)cc2)C1` [Compound 195]: the IC50 in assay [1] was more than 30000 nM. The EC50 in assay [2] is more than 2000 nM.

For `N#Cc1c(C2CNC2)n(-c2ccc(F)cc2)c2ccc(O)cc12` [Compound 196], in assay [1], the IC50 is more than 30000 nM. The EC50 in assay [2] is more than 2000 nM.

`N#Cc1c(C2CCC2)n(-c2ccccc2)c2ccc(O)cc12` [Compound 197]: in assay [1], the IC50 was more than 30000 nM. Besides, the EC50 in assay [2] lay in the range of 500 to 2000 nM.

For `N#Cc1c(C2CCCO2)n(-c2ccc(F)cc2)c2ccc(O)cc12` (centres unmarked) [Compound 198], the half-inhibitory concentration (IC50) in assay [1] is more than 30000 nM. Besides, the EC50 in assay [2] was more than 2000 nM.

Source of the values: patent US20230339915A1 (Vertex Pharmaceuticals Incorporated, priority 2020, published 2023).
